pKd: −log10 of the molar value. Blank lines part the entries; values can stand above or below the compound they belong to.
Tests used:
[1] = system: DIR2s_GAAACAC (RNA, aptamer) GGAUGCGCCUUGAAAAGCCUGCGAAACACGCAGCUGGUGAAUGACAGCUAUGGCGCAUCC; test: fluorescence competition; conditions: 150 mM NaCl, 5 mM MgCl2; 50 mM Tris pH 7.4, 20 °C; OTB-SO3 displaced, 500 nM RNA, 600 nM OTB-SO3
[2] = system: DIR2s_GAAACAC (RNA, aptamer) GGAUGCGCCUUGAAAAGCCUGCGAAACACGCAGCUGGUGAAUGACAGCUAUGGCGCAUCC; test: fluorescence activation; conditions: 150 mM NaCl, 5 mM MgCl2; 50 mM Tris pH 7.4, 20 °C; loop version (UUCG or GAAACAC) not stated
[3] = system: Fab BL3-6, PDB:6DB9_2+PDB:6DB9_3; test: filter binding; conditions: 5 mM Mg2+; no dye mentioned; Filter binding: 50 mM Tris pH 7.4, 150 mM NaCl, 5 mM MgCl2, 0.1 U/uL RNase inhibitor, 2 nM-2 uM Fab, 30 min; RNA refolded at 50 C then RT (binding temperature …)
[4] = system: DIR2s_GAAACAC (RNA, aptamer) GGAUGCGCCUUGAAAAGCCUGCGAAACACGCAGCUGGUGAAUGACAGCUAUGGCGCAUCC; test: fluorescence titration; conditions: 150 mM NaCl, 5 mM MgCl2; 50 mM Tris pH 7.4, 20 °C; construct assigned from review file b5063
[5] = system: DIR2s_WT (UUCG) (RNA, aptamer) GGAUGCGCCUUGAAAAGCCUGCUUCGGCAGCUGGUGAAUGACAGCUAUGGCGCAUCC; test: fluorescence activation; conditions: 150 mM NaCl, 5 mM MgCl2; 50 mM Tris pH 7.4, 20 °C
[6] = system: G39, A40, A41 to U (RNA, aptamer) GGAUGCGCCUUGAAAAGCCUGCGAAACACGCAGCUGGUUUUUGACAGCUAUGGCGCAUCC; test: fluorescence activation; conditions: 150 mM NaCl, 5 mM MgCl2; 50 mM Tris pH 7.4, 20 °C; RNA 3 µM, dye 6 µM; fluorescence abolished
[7] = system: A15C; A40, A41 to G (RNA, aptamer) GGAUGCGCCUUGAACAGCCUGCGAAACACGCAGCUGGUGGGUGACAGCUAUGGCGCAUCC; test: fluorescence activation; conditions: 150 mM NaCl, 5 mM MgCl2; 50 mM Tris pH 7.4, 20 °C; RNA 3 µM, dye 6 µM; fluorescence abolished
[8] = system: Abasic G39 (RNA, aptamer, abasic at 39) GGAUGCGCCUUGAAAAGCCUGCGAAACACGCAGCUGGUNAAUGACAGCUAUGGCGCAUCC; test: fluorescence activation; conditions: 150 mM NaCl, 5 mM MgCl2; 50 mM Tris pH 7.4, 20 °C; RNA 3 µM, dye 6 µM; fluorescence diminished
[9] = system: Abasic A40 (RNA, aptamer, abasic at 40) GGAUGCGCCUUGAAAAGCCUGCGAAACACGCAGCUGGUGNAUGACAGCUAUGGCGCAUCC; test: fluorescence activation; conditions: 150 mM NaCl, 5 mM MgCl2; 50 mM Tris pH 7.4, 20 °C; RNA 3 µM, dye 6 µM; fluorescence diminished
[10] = system: A40U (RNA, aptamer) GGAUGCGCCUUGAAAAGCCUGCGAAACACGCAGCUGGUGUAUGACAGCUAUGGCGCAUCC; test: fluorescence activation; conditions: 150 mM NaCl, 5 mM MgCl2; 50 mM Tris pH 7.4, 20 °C; RNA 3 µM, dye 6 µM; fluorescence as WT
[11] = system: A41U (RNA, aptamer) GGAUGCGCCUUGAAAAGCCUGCGAAACACGCAGCUGGUGAUUGACAGCUAUGGCGCAUCC; test: fluorescence activation; conditions: 150 mM NaCl, 5 mM MgCl2; 50 mM Tris pH 7.4, 20 °C; RNA 3 µM, dye 6 µM; fluorescence as WT
[12] = system: 5 bp P1 (RNA, aptamer) GGCCUUGAAAAGCCUGCGAAACACGCAGCUGGUGAAUGACAGCUAUGGCC; test: fluorescence activation; conditions: 150 mM NaCl, 5 mM MgCl2; 50 mM Tris pH 7.4, 20 °C; RNA 3 µM, dye 6 µM; fluorescence as WT
[13] = system: 0 bp P1 (RNA, aptamer) GGAAAAGCCCGCGAAACACGCAGCUGGUGAAUGACAGCU; test: fluorescence activation; conditions: 150 mM NaCl, 5 mM MgCl2; 50 mM Tris pH 7.4, 20 °C; RNA 3 µM, dye 6 µM; ca. 80% of WT fluorescence
[14] = system: DIR2s_GAAACAC (RNA, aptamer) GGAUGCGCCUUGAAAAGCCUGCGAAACACGCAGCUGGUGAAUGACAGCUAUGGCGCAUCC; test: X-ray crystal structure, 1.86 Å; conditions: 10 mM MgCl2, 1.8 M Li2SO4; 50 mM MES pH 5.6; ternary complex with Fab BL3-6

- binding [1]: yes
Compound: CN1C(=CC=Cc2cc[n+](CCCS(=O)(=O)[O-])c3ccccc23)C(C)(C)c2ccccc21

- binding [2]: yes
Compound: CN1C=CC(=Cc2sc3ccccc3[n+]2CC(=O)NCCOCCOCCOCCNC(=O)CCCC[C@@H]2SC[C@@H]3NC(=O)N[C@@H]32)c2ccccc21

Compound: GGAUGCGCCUUGAAAAGCCUGCGAAACACGCAGCUGGUGAAUGACAGCUAUGGCGCAUCC [DIR2s_GAAACAC RNA]
- pKd [3]: 7.17

- Kd [4]: 708 ± 16 nM
- binding [5]: yes
- binding [6]: no
- binding [7]: no
- binding [8]: weak
- binding [9]: weak
- binding [10]: yes
- binding [11]: yes
- binding [12]: yes
- binding [13]: yes
- binding [14]: yes
Compound: CN1/C(=C/c2sc3ccccc3[n+]2CCCS(=O)(=O)[O-])Oc2ccccc21
